Assay results taken from US6897319B2, “Useful aroyl pyrrole heteroaryl methanones and methanols” (Ortho-McNeil Pharmaceutical, Inc., priority 2001, dated 2005).
Marks after values point to notes of the source that are not given here.

Key:
[1] = system: voltage-gated sodium channels; assay: Fluorometric membrane potential assay in SK-N-SH cells (veratridine stimulus, FLIPR); assay type: cell-based; details: 10 μM compound, 5 μM veratridine
Method: Screening Assay for Voltage-Gated Sodium Channel Antagonists Fluorometric Membrane Potential Assay
(§1) SK-N-SH neuroblastoma cells were maintained in a propagation medium containing modified Eagle's medium and 10% (v/v) fetal bovine serum and were incubated at 37° C. in a 5% CO2 atmosphere. Only cells with fewer than 20 passages were used in each assay. All drugs were prepared in DMSO, and the final concentration of solvent was less than 0.1% (v/v). Veratridine, a toxin that selectively promotes persistent activation of voltage-gated sodium channels, served as the stimulus. 24 hr prior to testing, 1×10^5 cells/well were plated into 96-well plates specifically designed for use in a fluorescent imaging plate reader (FLIPR) (Molecular Devices, Sunnyvale, Calif.)
Prior to screening, monolayers of cells were loaded with 100 μL/well of a proprietary voltage-sensitive dye (Molecular Devices, Sunnyvale, Calif.) for 30 min at 37° C. After this incubation period, the cells were stimulated with 5 μM veratridine in the presence or absence of investigational compounds (prepared at a final concentration of 10 μM in DMSO). A sample containing 5 μM veratridine and 10 μM tetrodotoxin accounted for nonspecific activity. The fluorescence was monitored by the FLIPR (Molecular Devices) from 10 sec prior to drug addition (50 μL) to 170 sec after drug addition at 25° C. During sodium channel activation, the cells depolarize and the dye associates with cell membranes, resulting in increased fluorescence.

[2] = system: voltage-gated sodium channels; assay: [14C]guanidinium flux assay in SK-N-SH cells (veratridine stimulus); assay type: cell-based; details: 10 μM compound, 100 μM veratridine
Method: Screening Assay for Voltage-Gated Sodium Channel Antagonists [^14C] Guanidinium Flux Assay
as §1, with “stimulus.” for “stimulus. 24 hr prior to testing, 1×10^5 cells/well were plated into 96-well plates specifically designed for use in a fluorescent imaging plate reader (FLIPR) (Molecular Devices, Sunnyvale, Calif.)”
SK-N-SH cells were plated at 1×10^5 cells/well in 96-well Cytostar-T microscintillating plates in propagation medium and experiments were performed 6-7 days after plating. Prior to assay, the SK-N-SH cells were washed twice with assay buffer containing 50 mM HEPES (pH 7.45), 5.4 mM potassium chloride, 0.8 mM magnesium chloride, 130 mM choline chloride, 5.5 mM glucose and 0.1 mg/mL bovine serum albumin. Next, the plates were allowed to equilibrate for 10 min at 37° C. in assay buffer. After this incubation period, the cells were stimulated with 100 μM veratridine in the presence or absence of investigational compounds prepared in a 96-well plate (prepared at a final concentration of 10 μM in DMSO). The 96-well dosing plate was prepared by mixing 25 μL of a drug/assay buffer solution per well with 25 μL of 0.7 μCi/mL [^14C]guanidine hydrochloride in assay buffer. 50 μL aliquots from the dosing plate were then added to the cells. One sample containing 100 μM veratridine and 10 μM tetrodotoxin accounted for nonspecific activity. The plates were incubated for 1 hr at room temperature and the radioactivity was counted in a 1450 Microbeta scintillation counter.

[3] = system: maximal electroshock extensor seizure; assay: Mouse maximal electroshock test (MES) anticonvulsant model; assay type: in vivo; details: oral
Method: Procedure for Testing in Mouse Anticonvulsant Model
The activity of the present compounds as anticonvulsant agents was determined using a standard mouse “maximal electroshock test” (MES). In this test, activity was indicated by a block of the […] extensor seizure, as described by Swinyard, et al. (J. Pharmacol. Exptl. Therap., 1952, 106, 319). A more recent description of current anticonvulsant drug screening is given in Swinyard, et al., in Epilepsia, 1978, 19, 409.
The anticonvulsant activity of the instant compounds is shown in Table 5 and was evaluated according to the Swinyard (1952) method. The abbreviations used in the table have the following meanings: mpk refers to the dose orally administered in “mg per Kg;” and, ED50 refers to the “50% Effective Dose” orally administered in mpk. The values marked by an * represent the number of mice protected/number of mice tested; therefore, a value of 3/3 represents that the number of mice protected matched the number of mice tested at the indicated dose.

[4] = system: mechanical allodynia after L5 spinal nerve ligation; assay: Chung Model (spinal nerve ligation) antiallodynic effect; assay type: in vivo; details: rat; for % MPE in the Chung Model: oral, screening dose (not given)
Excerpt: Procedure for Testing Antiallodynic Effect
The procedure used to detect the antiallodynic effect of a compound of the present invention for which there is a good correlation with human efficacy for the treatment of pain is the procedure for the measurement of allodynia found in the Chung Model (Kim S. H. and Chung J. M., An Experimental Model for Peripheral Neuropathy Produced by Segmental Spinal Nerve Ligation in the Rat, Pain, 1992, 50, 355-363). The antiallodynic effect of the composition of the present invention in the Chung Model is expressed in % MPE (Maximum Possible Effect).
Male Sprague-Dawley rats, weighing approximately 200 g each were anesthetized with isoflurane. The spinal nerve at the level of L5 was exposed through an incision just left of the dorsal midline and tightly ligated with 6-0 silk. At various times after surgery, animals were tested for mechanical allodynia with von Frey hairs (monofilaments which are calibrated to bend under a certain amount of pressure, ranging from 0.41 to 15.1 g). In order to calculate a paw withdrawal threshold (PWT), tactile allodynia was measured by recording the pressure at which the affected paw was withdrawn from graded stimuli according to the procedure of S. R. Chaplan, J. W. Pogrel, T. L. Yaksh, Role of Voltage-Dependent Calcium Channel Subtypes in Experimental Tactile Allodynia, J. Pharmacol. Exp. Ther., 1994, 269, 1117-1123. Normal rats can withstand at least 15 g of pressure without responding. Operated rats, however, can respond to as little as 0.25 g of pressure. The surgery was deemed successful if the animal responded with a PWT of less than 4 g of pressure applied to the affected paw. […] The PWT was used to calculate the % maximal possible effect (% MPE) according to the formula: %MPE=100×[(PWT−CT)/(CO−CT)]; wherein PWT is defined as Paw Withdrawal Threshold, CT is Control Threshold, and CO is Cut Off (defined as 15 g).
The sham operation consisted of a similar surgery; the spinal nerve was visualized without being ligated.
Compounds selected from Formula (I) and Formula (II) were tested for activity in treating or modulating neuropathic pain by being dissolved or suspended in either water or hydroxypropyl methylcellulose, respectively. Postoperative animals between 14 to 42 days were fasted overnight prior to dosing. Animals were orally dosed and dosage volumes were calculated on a 4 mL/kg basis.

SMILES	% FI at 10 μM (% fluorescence inhibition) [1]	% GFI at 10 μM (% guanidinium flux inhibition) [2]	MES Response, number of mice protected/number of mice tested ([3]; @ 300 mpk)	MES Response, number of mice protected/number of mice tested ([3]; @ 30 mpk)	% MPE in the Chung Model [4]	MES Response, number of mice protected/number of mice tested ([3]; @ 100 mpk)	ED50 in the Chung Model ([4]; orally administered)	ED50 ([4]; po, orally administered)
Cn1cc(C(=O)c2cc[n+](C)cc2)cc1C(=O)c1ccc(Cl)cc1.O.O=S(=O)([O-])C(F)(F)F [Cpd 14, 4-[[5-(4-Chlorobenzoyl)-1-methyl-1H-pyrrol-3-yl]carbonyl]-1-methylpyridinium trifluoromethanesulfonate hydrate [5:1]]	54%	14%	–	–	–	–	–	–
Cl.Cn1cc(C(=O)c2ccncc2)cc1C(=O)c1cccs1 [Cpd 4, [1-Methyl-5-(thiophene-2-carbonyl)-1H-pyrrol-3-yl]pyridin-4-ylmethanone hydrochloride]	49%	–	0/1* @ 300 mpk	–	–	–	–	–
Cn1cc(C(=O)c2ccccn2)cc1C(=O)c1ccc(Cl)cc1 [Cpd 6, [5-(4-Chlorobenzoyl)-1-methyl-1H-pyrrol-3-yl]pyridin-2-yl-methanone]	25%	74%	–	1/1* @ 30 mpk	12%	–	–	–
Cn1cc(C(=O)c2cc[n+]([O-])cc2)cc1C(=O)c1ccc(Cl)cc1 [Cpd 15, (4-Chlorophenyl)-[1-methyl-4-(1-oxypyridine-4-carbonyl)-1H-pyrrol-2-yl]methanone]	40%	4%	–	–	7.9%	–	–	–
Cc1ccc(C(=O)c2cc(C(=O)c3ccncc3)cn2C)cc1.Cl [Cpd 3, [1-Methyl-5-(4-methylbenzoyl)-1H-pyrrol-3-yl]pyridin-4-ylmethanone Hydrochloride]	45%	–	–	–	5%	3/3* @ 100 mpk	–	–
Cn1cc(C(O)c2cc[n+]([O-])cc2)cc1C(=O)c1ccc(Cl)cc1 (stereo not drawn) [Cpd 16, (4-Chlorophenyl)-{4-[hydroxy-(1-oxy-pyridin-4-yl)methyl]-1-methyl-1H-pyrrol-2-yl}methanone]	29%	–	–	–	–	–	ED50 = 29 mpk	–
Cn1cc(C(=O)c2ccc(F)cc2)cc1C(=O)c1ccncc1 [Cpd 11, (4-Fluorophenyl)-[1-methyl-5-(pyridine-4-carbonyl)-1H-pyrrol-3-yl]methanone]	39%	–	0/1* @ 300 mpk	–	10%	–	–	–
Cl.Cn1cc(C(=O)c2cccnc2)cc1C(=O)c1ccc(Cl)cc1.Cn1cc(C(=O)c2cccnc2)cc1C(=O)c1ccc(Cl)cc1.O [Cpd 5, [5-(4-Chlorobenzoyl)-1-methyl-1H-pyrrol-3-yl]pyridin-3-ylmethanone hydrochoride hydrate [2:1:1]]	26%	55%	–	–	9%	–	–	–
Cn1cc(C(=O)c2ccc3ccccc3c2)cc1C(=O)c1cccnc1 [Cpd 8, [1-Methyl-5-(pyridine-3-carbonyl)-1H-pyrrol-3-yl]naphthalen-2-yl-methanone]	67%	82%	0/1* @ 300 mpk	–	1.3%	–	–	–
Cn1cc(C(=O)c2ccc(Cl)cc2)cc1C(=O)c1ccc(Cl)nc1 [Cpd 9, (4-Chlorophenyl)-[5-(6-chloropyridine-3-carbonyl)-1-methyl-1H-pyrrol-3-yl]methanone]	26%	31%	–	–	5%	–	–	–
Cn1cc(C(=O)c2ccc(F)cc2)cc1C(=O)c1ccccn1 [Cpd 10, (4-Fluorophenyl)-[1-methyl-5-(pyridine-2-carbonyl)-1H-pyrrol-3-yl]methanone]	60%	46%	0/1* @ 300 mpk	–	11%	–	–	–
Cn1cc(C(O)c2ccncc2)cc1C(=O)c1ccc(Cl)cc1 (stereo not drawn) [Cpd 12, (4-Chlorophenyl)-[4-(hydroxypyridin-4-yl-methyl)-1-methyl-1H-pyrrol-2-yl]-methanone]	60%	–	–	–	3.7%	–	–	–
Cn1cc(C(=O)c2cnc[nH]2)cc1C(=O)c1ccc(Cl)cc1 [Cpd 13, (4-Chlorophenyl)-[4-(3H-imidazole-4-carbonyl)-1-methyl-1H-pyrrol-2-yl]methanone]	62%	24%	–	–	–	–	–	–
Cc1c(C(=O)c2ccc(F)cc2)c(C)n(C)c1C(=O)c1cccnc1 [Cpd 17, (4-Fluorophenyl)-[1,2,4-trimethyl-5-(pyridine-3-carbonyl)-1H-pyrrol-3-yl]methanone]	15%	–	–	–	59%	–	–	–
Cl.Cn1cc(C(=O)c2ccc(F)cc2)cc1C(=O)c1cccnc1 [Cpd 7, (4-Fluorophenyl)-[1-methyl-5-(pyridine-3-carbonyl)-1H-pyrrol-3-yl]methanone Hydrochloride]	45%	57%	–	–	–	2/3* @ 100 mpk	–	22 mg/kg
Cn1cc(C(=O)c2ccncc2)cc1C(=O)c1ccccc1 [Cpd 2, (5-Benzoyl-1-methyl-1H-pyrrol-3-yl)pyridin-4-ylmethanone]	76%	–	–	–	7%	–	–	–
